The values that follow are results of earlier work, collected in US12134602B2 (Yale University, priority 2011, dated 2024).

For the data set the following is noted: in vivo.

The structures appear in SMILES notation.

With `C/C=C1\[C@H]2C=C(C)C[C@]1(N)c1ccc(=O)[nH]c1C2` [(−)-Huperzine A, (−)-huperzine A], the tolerability entry is listed as “well tolerated”.
